Assay results as given in PubChem BioAssay (NCI).
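Tested at 5 concentrations; 48 h exposure; 96-well plates; endpoints linearly interpolated, else capped at highest concentration. GI50: concentration for 50% inhibition of growth. The concentration for full growth arrest is given as TGI.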

Tests used:
Assay in all cases: DTP human tumour cell line panel, 48 h
SNB-75 CNS = tested on: SNB-75 CNS
SF-295 CNS = tested on: SF-295 CNS
M14 melanoma = tested on: M14 melanoma
SR leukemia = tested on: SR leukemia
K-562 leukemia = tested on: K-562 leukemia
HCC-2998 colon = tested on: HCC-2998 colon
HS 578T breast = tested on: HS 578T breast
SK-MEL-28 melanoma = tested on: SK-MEL-28 melanoma
786-0 renal = tested on: 786-0 renal
KM12 colon = tested on: KM12 colon
IGROV1 ovarian = tested on: IGROV1 ovarian
NCI-H522 lung = tested on: NCI-H522 lung
CCRF-CEM leukemia = tested on: CCRF-CEM leukemia
SF-268 CNS = tested on: SF-268 CNS
NCI-H226 lung = tested on: NCI-H226 lung
SK-OV-3 ovarian = tested on: SK-OV-3 ovarian
MDA-MB-435 = tested on: MDA-MB-435
OVCAR-8 ovarian = tested on: OVCAR-8 ovarian
ACHN renal = tested on: ACHN renal
LOX IMVI melanoma = tested on: LOX IMVI melanoma
NCI-H460 lung = tested on: NCI-H460 lung
NCI-H23 lung = tested on: NCI-H23 lung
TK-10 renal = tested on: TK-10 renal
PC-3 prostate = tested on: PC-3 prostate
SNB-19 CNS = tested on: SNB-19 CNS
OVCAR-5 ovarian = tested on: OVCAR-5 ovarian
HT29 colon = tested on: HT29 colon
MALME-3M melanoma = tested on: MALME-3M melanoma
A549 NSCLC = tested on: A549 NSCLC
OVCAR-3 ovarian = tested on: OVCAR-3 ovarian
MOLT-4 leukemia = tested on: MOLT-4 leukemia
SK-MEL-5 melanoma = tested on: SK-MEL-5 melanoma
NCI/ADR-RES ovarian = tested on: NCI/ADR-RES ovarian
OVCAR-4 ovarian = tested on: OVCAR-4 ovarian
UO-31 renal = tested on: UO-31 renal
HCT-116 colon = tested on: HCT-116 colon
CAKI-1 renal = tested on: CAKI-1 renal
MCF7 breast = tested on: MCF7 breast
HOP-92 NSCLC = tested on: HOP-92 NSCLC
HOP-62 NSCLC = tested on: HOP-62 NSCLC
SW-620 colon = tested on: SW-620 colon
U251 CNS = tested on: U251 CNS
T-47D breast = tested on: T-47D breast
SF-539 CNS = tested on: SF-539 CNS
RXF 393 renal = tested on: RXF 393 renal
HL-60(TB) leukemia = tested on: HL-60(TB) leukemia
SK-MEL-2 melanoma = tested on: SK-MEL-2 melanoma
MDA-MB-231 breast = tested on: MDA-MB-231 breast
A498 renal = tested on: A498 renal
EKVX NSCLC = tested on: EKVX NSCLC
RPMI-8226 leukemia = tested on: RPMI-8226 leukemia
UACC-62 melanoma = tested on: UACC-62 melanoma
BT-549 breast = tested on: BT-549 breast
COLO 205 colon = tested on: COLO 205 colon
HCT-15 colon = tested on: HCT-15 colon
UACC-257 melanoma = tested on: UACC-257 melanoma
DU-145 prostate = tested on: DU-145 prostate
SN12C renal = tested on: SN12C renal

## OC1(c2ccccc2)CC2CCC(C1)N2CCCC(O)(c1ccccc1)c1ccccc1 (centres undefined)
SNB-75 CNS
  TGI: 23.8 µM
SF-295 CNS
  TGI: 10.6 µM
M14 melanoma
  TGI: 30.8 µM
SR leukemia
  TGI: > 100 µM
K-562 leukemia
  TGI: 37.8 µM
HCC-2998 colon
  TGI: 6.25 µM
HS 578T breast
  TGI: 18.7 µM
SK-MEL-28 melanoma
  TGI: 32.9 µM
786-0 renal
  TGI: 25.6 µM
KM12 colon
  TGI: 30.3 µM
IGROV1 ovarian
  TGI: 29.9 µM
NCI-H522 lung
  TGI: 27.9 µM
CCRF-CEM leukemia
  TGI: 30.8 µM
SF-268 CNS
  TGI: 30.1 µM
NCI-H226 lung
  TGI: 29 µM
SK-OV-3 ovarian
  TGI: 28.1 µM
MDA-MB-435
  TGI: 24.8 µM
OVCAR-8 ovarian
  TGI: 36.1 µM
ACHN renal
  TGI: 31.5 µM
LOX IMVI melanoma
  TGI: 22.4 µM
NCI-H460 lung
  TGI: 5.13 µM
NCI-H23 lung
  TGI: 25.7 µM
TK-10 renal
  TGI: 25.8 µM
PC-3 prostate
  TGI: 16.2 µM
SNB-19 CNS
  TGI: 42.9 µM
OVCAR-5 ovarian
  TGI: 44.4 µM
HT29 colon
  TGI: 9.64 µM
MALME-3M melanoma
  TGI: 39.1 µM
A549 NSCLC
  TGI: 34.4 µM
OVCAR-3 ovarian
  TGI: 30 µM
MOLT-4 leukemia
  TGI: 36.3 µM
SK-MEL-5 melanoma
  TGI: 10.2 µM
NCI/ADR-RES ovarian
  TGI: 39.1 µM
OVCAR-4 ovarian
  TGI: > 100 µM
UO-31 renal
  TGI: 20.2 µM
HCT-116 colon
  TGI: 36.1 µM
CAKI-1 renal
  TGI: 27.1 µM
MCF7 breast
  TGI: 33.3 µM
HOP-92 NSCLC
  TGI: 18.9 µM
HOP-62 NSCLC
  TGI: 29 µM
SW-620 colon
  TGI: 22.4 µM
U251 CNS
  TGI: 28.7 µM
T-47D breast
  TGI: 50.3 µM
SF-539 CNS
  TGI: 16.8 µM
RXF 393 renal
  TGI: 24.3 µM
HL-60(TB) leukemia
  TGI: > 100 µM
SK-MEL-2 melanoma
  TGI: 37.6 µM
MDA-MB-231 breast
  TGI: 43.9 µM
A498 renal
  TGI: 29.1 µM
EKVX NSCLC
  TGI: 38.3 µM
RPMI-8226 leukemia
  TGI: 6.4 µM
UACC-62 melanoma
  TGI: 28.5 µM
BT-549 breast
  TGI: 26.3 µM
COLO 205 colon
  TGI: 30.8 µM
HCT-15 colon
  TGI: 27.3 µM
UACC-257 melanoma
  TGI: 4 µM
DU-145 prostate
  TGI: 56.8 µM
SN12C renal
  TGI: 39.1 µM

## Oc1ccc(NC(=S)Nc2ccccc2)cc1
SNB-75 CNS
  GI50: > 100 µM
  TGI: > 100 µM
SF-295 CNS
  GI50: > 100 µM
  TGI: > 100 µM
M14 melanoma
  GI50: > 100 µM
  TGI: > 100 µM
SR leukemia
  GI50: > 100 µM
  TGI: > 100 µM
K-562 leukemia
  GI50: > 100 µM
  TGI: > 100 µM
HCC-2998 colon
  GI50: > 100 µM
  TGI: > 100 µM
HS 578T breast
  GI50: > 100 µM
  TGI: > 100 µM
SK-MEL-28 melanoma
  GI50: > 100 µM
  TGI: > 100 µM
786-0 renal
  GI50: > 100 µM
  TGI: > 100 µM
KM12 colon
  GI50: > 100 µM
  TGI: > 100 µM
IGROV1 ovarian
  GI50: > 100 µM
  TGI: > 100 µM
NCI-H522 lung
  GI50: > 100 µM
  TGI: > 100 µM
CCRF-CEM leukemia
  GI50: > 100 µM
  TGI: > 100 µM
SF-268 CNS
  GI50: > 100 µM
  TGI: > 100 µM
NCI-H226 lung
  GI50: > 100 µM
  TGI: > 100 µM
SK-OV-3 ovarian
  GI50: > 100 µM
  TGI: > 100 µM
MDA-MB-435
  GI50: > 100 µM
  TGI: > 100 µM
OVCAR-8 ovarian
  GI50: > 100 µM
  TGI: > 100 µM
ACHN renal
  GI50: > 100 µM
  TGI: > 100 µM
LOX IMVI melanoma
  GI50: > 100 µM
  TGI: > 100 µM
NCI-H460 lung
  GI50: > 100 µM
  TGI: > 100 µM
NCI-H23 lung
  GI50: > 100 µM
  TGI: > 100 µM
TK-10 renal
  GI50: > 100 µM
  TGI: > 100 µM
PC-3 prostate
  GI50: > 100 µM
  TGI: > 100 µM
SNB-19 CNS
  GI50: > 100 µM
  TGI: > 100 µM
OVCAR-5 ovarian
  GI50: > 100 µM
  TGI: > 100 µM
HT29 colon
  GI50: > 100 µM
  TGI: > 100 µM
MALME-3M melanoma
  GI50: > 100 µM
  TGI: > 100 µM
A549 NSCLC
  GI50: > 100 µM
  TGI: > 100 µM
OVCAR-3 ovarian
  GI50: > 100 µM
  TGI: > 100 µM
MOLT-4 leukemia
  GI50: > 100 µM
  TGI: > 100 µM
SK-MEL-5 melanoma
  GI50: > 100 µM
  TGI: > 100 µM
NCI/ADR-RES ovarian
  GI50: > 100 µM
  TGI: > 100 µM
OVCAR-4 ovarian
  GI50: > 100 µM
  TGI: > 100 µM
UO-31 renal
  GI50: > 100 µM
  TGI: > 100 µM
HCT-116 colon
  GI50: > 100 µM
  TGI: > 100 µM
CAKI-1 renal
  GI50: > 100 µM
  TGI: > 100 µM
MCF7 breast
  GI50: > 100 µM
  TGI: > 100 µM
HOP-92 NSCLC
  GI50: 51.8 µM
  TGI: > 100 µM
HOP-62 NSCLC
  GI50: > 100 µM
  TGI: > 100 µM
SW-620 colon
  GI50: > 100 µM
  TGI: > 100 µM
U251 CNS
  GI50: > 100 µM
  TGI: > 100 µM
T-47D breast
  GI50: > 100 µM
  TGI: > 100 µM
SF-539 CNS
  GI50: > 100 µM
  TGI: > 100 µM
RXF 393 renal
  GI50: > 100 µM
  TGI: > 100 µM
HL-60(TB) leukemia
  GI50: > 100 µM
  TGI: > 100 µM
SK-MEL-2 melanoma
  GI50: > 100 µM
  TGI: > 100 µM
MDA-MB-231 breast
  GI50: > 100 µM
  TGI: > 100 µM
A498 renal
  GI50: > 100 µM
  TGI: > 100 µM
EKVX NSCLC
  GI50: > 100 µM
  TGI: > 100 µM
RPMI-8226 leukemia
  GI50: > 100 µM
  TGI: > 100 µM
UACC-62 melanoma
  GI50: > 100 µM
  TGI: > 100 µM
BT-549 breast
  GI50: > 100 µM
  TGI: > 100 µM
COLO 205 colon
  GI50: > 100 µM
  TGI: > 100 µM
HCT-15 colon
  GI50: > 100 µM
  TGI: > 100 µM
UACC-257 melanoma
  GI50: > 100 µM
  TGI: > 100 µM
DU-145 prostate
  GI50: > 100 µM
  TGI: > 100 µM
SN12C renal
  GI50: > 100 µM
  TGI: > 100 µM
